# Source: PubChem BioAssay (NCI)
# Where “and” joins values, the source holds several entries; their conditions need not be identical. Equal entries are not always repeated.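 Results reflect a 48-hour exposure of cells in 96-well plates to compound at five concentrations. The concentration for 50% growth inhibition is given as GI50. The concentration for full growth arrest is given as TGI.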
# Tests used:
# Experiment in all cases: NCI anticancer screen, dose series, 48 h
# A498 renal = system: A498 renal
# CCRF-CEM leukemia = system: CCRF-CEM leukemia
# HCT-15 colon = system: HCT-15 colon
# HT29 colon = system: HT29 colon
# LOX IMVI melanoma = system: LOX IMVI melanoma
# MALME-3M melanoma = system: MALME-3M melanoma
# NCI-H226 lung = system: NCI-H226 lung
# PC-3 prostate = system: PC-3 prostate
# RPMI-8226 leukemia = system: RPMI-8226 leukemia
# RXF 393 renal = system: RXF 393 renal
Structure (SMILES),GI50 (A498 renal),TGI (A498 renal),GI50 (CCRF-CEM leukemia),TGI (CCRF-CEM leukemia),GI50 (HCT-15 colon),TGI (HCT-15 colon),GI50 (HT29 colon),TGI (HT29 colon),GI50 (LOX IMVI melanoma),TGI (LOX IMVI melanoma),GI50 (MALME-3M melanoma),TGI (MALME-3M melanoma),GI50 (NCI-H226 lung),TGI (NCI-H226 lung),GI50 (PC-3 prostate),TGI (PC-3 prostate),GI50 (RPMI-8226 leukemia),TGI (RPMI-8226 leukemia),GI50 (RXF 393 renal),TGI (RXF 393 renal)
N#Cc1c(N2CCOCC2)nc(=S)[nH]c1-c1ccccc1,3.66 µM,26.8 µM,30.9 µM,> 100 µM,24.9 µM,> 100 µM,33.5 µM,> 100 µM,23.5 µM,> 100 µM,5.19 µM,58.9 µM,14.3 µM,> 100 µM,2.1 µM,8.79 µM,13.3 µM,> 100 µM,21 µM,> 100 µM
COCCNc1ccc2c3c(cccc13)C(=O)N(CCN(C)C)C2=O,6.16 µM,21.5 µM,6.38 µM,> 25 µM,6.84 µM,> 25 µM,7.66 µM,> 25 µM,7.06 µM,> 25 µM,6.13 µM,21.1 µM,5.01 µM,17 µM,9.76 µM,> 25 µM,5.27 µM,15 µM,5.07 µM,16.9 µM
COc1cc(/C(=C2/O[C@@H]([C@H]3COC(C)(C)O3)[C@H]3OC(C)(C)O[C@@H]23)c2ccc3ccccc3c2)cc(OC)c1OC,17.8 µM,74.6 µM,48.3 µM,> 100 µM,76.8 µM,> 100 µM,3.64 µM,16.3 µM,3.39 µM,19.8 µM,2.07 µM,5.59 µM,3.49 µM,60 µM,5.71 µM,> 100 µM,33.3 µM,> 100 µM,2.54 µM,5.99 µM
COC(=O)C1=COC(C)C2CN3CCc4c([nH]c5cc(OC)c(OC)cc45)C3CC12 (stereo not drawn),–,> 100 µM,41.7 µM and 13.6 µM,> 100 µM,–,> 100 µM,–,> 100 µM and 94.5 µM,–,> 100 µM,–,> 100 µM,–,> 100 µM,–,> 100 µM,–,> 100 µM,–,85.8 µM
CC(C)(C)[Si](C)(C)OC1[C@@H](O[Si](C)(C)C(C)(C)C)[C@@H](CNC(=O)NC(=O)CF)O[C@H]1n1cnc2c(NC(=O)Nc3ccccc3)ncnc21 (stereo partly drawn),8.92 µM,25.3 µM,11.6 µM,> 50 µM,11.2 µM,> 50 µM,7.35 µM,25.9 µM,6.14 µM,12.5 µM,30.8 µM,> 50 µM,5.5 µM,> 50 µM,2.19 µM,> 50 µM,14 µM,> 50 µM,1.35 µM,4.57 µM
CC1=CCCC2C1(C)CCC(C)C2(C)Cc1cc(O)ccc1O (stereo not drawn),–,32.9 µM and 30.3 µM,3.76 µM,> 37.1 µM and 5.88 µM,6.04 µM,25.8 µM and 23.7 µM,14.2 µM,29.6 µM and 37.1 µM,3.6 µM,16.2 µM and 16.3 µM,14.7 µM,29.2 µM and 35.7 µM,5.5 µM,27.2 µM and 15.8 µM,–,18.1 µM,–,9.97 µM and 8.53 µM,3.74 µM,20.4 µM and 10.9 µM
C#CCN(Cc1nc2cc(C(F)(F)F)ccc2nc1-c1ccccc1)c1ccc(C)cc1,10.6 µM,27.5 µM,> 55.7 µM,> 100 µM,6.01 µM,> 24.8 µM,12.4 µM,> 32 µM,24.8 µM,> 48.5 µM,15.7 µM,42.3 µM,8.07 µM,33 µM,> 62.6 µM,> 100 µM,> 48.5 µM,> 76.3 µM,4.18 µM,28 µM
CN1CCC2(CC1)NC(=O)c1c(c3ccc(Cl)c(Cl)c3n1C)C2C#N (stereo not drawn),9.05 µM,24.1 µM,6.32 µM,> 54.8 µM,3.98 µM,15.6 µM,3.95 µM,23.6 µM,4.71 µM,18.1 µM,3.11 µM,9.52 µM,6.52 µM,30.7 µM,5.7 µM,21.1 µM,2.94 µM,13.3 µM,2.27 µM,7.3 µM
C[C@@H](NC(=O)/C(C#N)=C/c1ccc([N+](=O)[O-])cc1)c1ccccc1,4.25 µM,8.49 µM,2.56 µM,> 38.9 µM,1.85 µM,3.88 µM,4.85 µM,10.2 µM,1.94 µM,4.64 µM,2.92 µM,8.31 µM,1.78 µM,3.69 µM,2.34 µM,6.65 µM,2.23 µM,5.95 µM,1.62 µM,3.04 µM
COc1ccc2c(c1)CC[C@@H]1[C@@H]2CC[C@]2(C)c3c(cc(C(=O)O)c4sccc34)C[C@@H]12,15.6 µM,34.9 µM,3.42 µM,13.3 µM,10.8 µM,32 µM,13.8 µM,34 µM,17.7 µM,42.8 µM,22.6 µM,42.7 µM,23 µM,55.4 µM,10.5 µM,25.1 µM,4.01 µM,17.7 µM,16.5 µM,36 µM
COc1cccc(/C=N/NC(=O)c2ccccc2N2CCCC2)c1O,4.97 µM,> 100 µM,0.712 µM,> 100 µM,1.76 µM,> 100 µM,30.4 µM,> 100 µM,2.54 µM,> 100 µM,15 µM,88.1 µM,1.84 µM,9.06 µM,6.48 µM,> 100 µM,3.74 µM,> 100 µM,44.4 µM,> 100 µM
Cn1nc(C(F)(F)F)cc1-c1c[nH]c(OCc2ccc(Cl)cc2)c(-c2ccc(Cl)c(C(F)(F)F)c2)c1=O,0.446 µM,1.31 µM,0.998 µM,> 50 µM,0.784 µM,5.07 µM,1.51 µM,> 47.5 µM,1.23 µM,3.56 µM,1.09 µM,3.07 µM,1.26 µM,4.27 µM,0.756 µM,4.32 µM,0.547 µM,2.24 µM,1.13 µM,3.4 µM
[Cl][Hg][c]1ccc(Cl)s1,17.2 µM,31.2 µM,0.326 µM,3.99 µM,0.397 µM,1.72 µM,1.14 µM,4.66 µM,1.53 µM,3.24 µM,1.3 µM,2.94 µM,4.71 µM,28.6 µM,5.62 µM,16.2 µM,2.23 µM,6.58 µM,1.56 µM,2.95 µM
C[C@@H]1CCC([C@@H](C)[C@H]2CC[C@H]3[C@@H]4CC[C@H]5C[C@@H](O)CC[C@]5(C)[C@H]4CC[C@]23C)=NC1,–,> 100 µM,–,> 100 µM,–,44.8 µM,–,> 55.4 µM,–,> 100 µM,–,> 100 µM,–,> 100 µM,–,> 100 µM,–,> 20.4 µM,–,> 100 µM
Cc1ccc2c(c1)c(Sc1ccc(C(=O)NO)cc1)c1n2CN(C)CC1,0.191 µM,2.16 µM,1.3 µM,9.52 µM,3.65 µM,13.6 µM,2.53 µM,8.38 µM,1.59 µM,3.36 µM,1.35 µM,4.2 µM,1.83 µM,4.86 µM,1.5 µM,3.77 µM,1.1 µM,9.86 µM,1.74 µM,5.86 µM
